Legend:
ERK1 = ERK1 (Homo sapiens, UniProt P27361); experiment: Kinase assay (Caliper, FAM-labeled peptide), ERK1; assay type: biochemical
In short: (§1)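 Kinase preincubated 10 min at room temperature with serially diluted compound before FAM-labeled peptide plus ATP added; reaction run at 28 °C, then stopped. Substrate conversion read by Caliper mobility shift, normalized to DMSO and low controls, curve-fitted for IC50.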

ERK2 = ERK2 (Homo sapiens, UniProt P28482); experiment: Kinase assay (Caliper, FAM-labeled peptide), ERK2; assay type: biochemical
Chain of ERK2 (P28482 whole entry): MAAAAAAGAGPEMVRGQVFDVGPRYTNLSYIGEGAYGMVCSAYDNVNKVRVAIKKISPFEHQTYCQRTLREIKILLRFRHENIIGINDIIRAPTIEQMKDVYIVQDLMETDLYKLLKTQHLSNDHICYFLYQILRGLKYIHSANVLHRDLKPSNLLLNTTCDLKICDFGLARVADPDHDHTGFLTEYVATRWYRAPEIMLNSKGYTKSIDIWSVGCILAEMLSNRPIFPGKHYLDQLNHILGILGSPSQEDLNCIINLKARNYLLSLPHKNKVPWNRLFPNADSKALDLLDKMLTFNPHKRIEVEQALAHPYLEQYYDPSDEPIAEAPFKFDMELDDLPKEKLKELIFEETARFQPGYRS
In short: as §1

COLO205 cells = experiment: Cell proliferation assay (COLO205), Cell-titer Glo; assay type: cell-based; settings: Homo sapiens, COLO 205, 120 h incubation
Method: COLO205 cells were spread into a 96-well plate at 135 μL/well at 2000 cells. After incubating overnight, compound solutions of gradient concentration was prepared, and added 15 μL of DMSO solution of the test compound of each concentration to the cells of each well. The final concentration of the compound was 30000, 10000, 3333.3, 1111.1, 370.4, 123.5, 41.2, 13.7, 4.6, 0 nM (the final concentration of DMSO was 0.5%). 5% CO2 was incubated for 120 h at 37° C. 50 μL of Cell-titer Glo working solution was added to each well, shaked and mixed, and incubated at room temperature for 10 minutes. The multi-functional microplate reader read the luminescence value, and converted the luminescence value reading into inhibition percentage. Inhibition percentage=(maximum value−reading)/(maximum value−minimum value)*100.
The “maximum value” was the DMSO control, the “minimum value” indicates the cell-free control group.
(§2) Graphpad Prism software was used to perform curve fitting and obtain IC50 value.

HCT 116 cells = experiment: Cell proliferation assay (HCT 116), Cell-titer Glo; assay type: cell-based; settings: Homo sapiens, 120 h incubation
Method: The HCT 116 cells were paved in a 96-well plate at 1200 cells, 160 μL/well. After incubating overnight, the compound solutions of gradient concentration was prepared, and 40 μL of DMSO solution of the test compound of each concentration was added to the cells of each well. The final concentration of the compound was 30000, 10000, 3333.3, 1111.1, 370.4, 123.5, 41.2, 13.7, 4.6, 0 nM (the final concentration of DMSO was 0.5%). 5% CO2 was incubated for 120 h at 37° C. 50 μL of Cell-titer Glo working solution was added to each well, shaked and mixed, and incubated at room temperature for 10 minutes. The multi-functional microplate reader read the luminescence value, and converted the luminescence value reading into inhibition percentage. Inhibition percentage=(maximum value−reading)/(maximum value−minimum value)*100.
The “maximum value” was the DMSO control, the “minimum value” indicated the cell-free control group.
as §2

Chain of ERK1 (P27361 whole entry): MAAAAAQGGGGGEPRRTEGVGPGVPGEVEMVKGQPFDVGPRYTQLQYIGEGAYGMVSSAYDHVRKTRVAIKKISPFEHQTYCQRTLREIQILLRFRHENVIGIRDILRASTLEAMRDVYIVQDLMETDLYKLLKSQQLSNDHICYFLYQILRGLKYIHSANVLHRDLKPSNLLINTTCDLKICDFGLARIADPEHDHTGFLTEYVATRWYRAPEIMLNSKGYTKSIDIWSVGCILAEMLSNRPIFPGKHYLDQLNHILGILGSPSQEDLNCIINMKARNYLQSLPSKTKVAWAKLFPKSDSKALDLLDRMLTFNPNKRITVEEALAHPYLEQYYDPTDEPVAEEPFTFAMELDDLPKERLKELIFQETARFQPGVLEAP

IC50 (ERK1) | IC50 (ERK2) | IC50 (COLO205 cells) | IC50 (HCT 116 cells) | SMILES
0.68 nM | 0.83 nM | 7.6 nM | 6.3 nM | CC(C)Nc1cc(-c2cc3n(c2)CC(CO)(CO)CN(Cc2cc(F)ccc2CO)C3=O)c(Cl)cn1 [Example 29, 8-(5-chloro-2-(isopropylamino)pyridin-4-yl)-2-(5-fluoro-2-(hydroxymethyl)benzyl)-4,4-bis (hydroxymethyl)-2,3,4,5-tetrahydro-1h-pyrrolo[1,2-a][1,4] diazepine-1-one]
0.84 nM | 0.48 nM | 16.6 nM | 10.4 nM | COC[C@H]1Cn2cc(-c3nc(Nc4ccnn4C)ncc3C)cc2C(=O)N1Cc1cc(F)ccc1CO [Example 35, (R)-2-(5-fluoro-2-(hydroxymethyl)benzyl)-3-(methoxymethyl)-7-(5-methyl-2-((1-methyl-1H-pyrazol-5-yl)amino)pyrimidin-4-yl)-3,4-dihydropyrrolo[1,2-a]pyrazine-1(2H)-one]
0.9 nM | 1.2 nM | 3.3 nM | 6.2 nM | COC[C@H]1Cn2cc(-c3cc(Nc4ccnn4C)ncc3Cl)cc2C(=O)N1Cc1cc(F)ccc1CO [Example 45, (R)-7-(5-chloro-2-((1-methyl-1H-pyrazol-5-yl)amino)pyridin-4-yl)-2-(5-fluoro-2-(hydroxymethyl)benzyl)-3-(methoxymethyl)-3,4-dihydropyrrolo[1,2-a]pyrazine-1(2H)-one]
0.72 nM | 0.89 nM | 11.3 nM | 6.5 nM | Cn1nccc1Nc1cc(-c2cc3n(c2)CCN(Cc2cc(F)ccc2CO)C3=O)c(Cl)cn1 [Example 50, 7-(5-Chloro-2-((1-methyl-1H-pyrazol-5-yl)amino)pyridin-4-yl)-2-(5-fluoro-2-(hydroxymethyl)benzyl)-3,4-dihydropyrrolo[1,2-a]pyrazine-1(2H)-one]
0.93 nM | 0.39 nM | 17.5 nM | 7.99 nM | COC[C@H]1Cn2cc(-c3cc(NC4CCOCC4)ncc3Cl)cc2C(=O)N1Cc1cc(F)ccc1CO [Example 62, (R)-7-(5-chloro-2-((tetrahydro-2h-pyran-4-yl)amino)pyridine-4-yl)-2-(5-fluoro-2-(hydroxymethyl)benzyl)-3-(methoxymethyl)-3,4-dihydropyrrolo[1,2-a] pyrazine-1(2H)-one]
 | 0.9 nM | 6.9 nM | 6.9 nM | COC[C@H]1Cn2cc(-c3cc(Nc4ccnn4C)ncc3Cl)cc2C(=O)N1Cc1cc(F)c(F)cc1CO [Example 95, (R)-7-(5-chloro-2-((1-methyl-1h-pyrazole-5-yl)amino)pyridine-4-yl)-2-(4,5-difluoro-2-(hydroxymethyl)benzyl)-3-(methoxymethyl)-3,4-dihydropyrrolo[1,2-a] pyrazine-1(2H)-one]
 |  | 21.7 nM | 18 nM | COC[C@H]1Cn2cc(-c3cc(Nc4ccnn4C)ncc3Cl)cc2C(=O)N1Cc1ccc(F)cc1CO [Example 99, (R)-7-(5-chloro-2-((1-methyl-1h-pyrazole-5-yl)amino)pyridine-4-yl)-2-(4-fluoro-2-(hydroxymethyl)benzyl)-3-(methoxymethyl)-3,4-dihydropyrrolo[1,2-a] pyrazine-1(2H)-one]
 |  | 19 nM | 19.9 nM | COC[C@H]1Cn2cc(-c3cc(Nc4ccnn4C)ncc3C(F)(F)F)cc2C(=O)N1Cc1cc(F)ccc1CO [Example 100, (R)-2-(5-fluoro-2-(hydroxymethyl)benzyl)-3-(methoxymethyl)-7-(2-((1-methyl-1h-pyrazole-5-yl)amino)-5-(trifluoromethyl)pyridin-4-yl)-3,4-dihydropyrrolo [1,2-a]pyrazine-1(2H)-one]
 |  | 6.4 nM | 11.6 nM | COC[C@H]1Cn2cc(-c3cc(Nc4ccnn4C)ncc3C)cc2C(=O)N1Cc1cc(F)ccc1CO [Example 102, (R)-2-(5-fluoro-2-(hydroxymethyl)benzyl)-3-(methoxymethyl)-7-(5-methyl-2-((1-methyl-1h-pyrazole-5-yl)amino)pyridine-4-yl)-3,4-dihydropyrrolo[1,2-a] pyrazine-1(2H)-one]
0.57 nM | 0.32 nM | 30.3 nM | 14.3 nM | O=C1c2cc(-c3cc(NC4CCOCC4)ncc3Cl)cn2CCN1Cc1cc(F)ccc1CO [Example 126, 7-(5-chloro-2-((tetrahydro-2h-pyran-4-yl)amino)pyridine-4-yl)-2-(5-fluoro-2-(hydroxymethyl)benzyl)-3,4-dihydropyrrolo[1,2-a] pyrazine-1(2H)-one]
 |  | 20.4 nM | 5.3 nM | COC[C@H]1Cn2cc(-c3nc(NC4CCOCC4)ncc3Cl)cc2C(=O)N1Cc1cc(F)ccc1CO [Example 130, (R)-7-(5-chloro-2-((tetrahydro-2h-pyran-4-yl)amino)pyrimidin-4-yl)-2-(5-fluoro-2-(hydroxymethyl)benzyl)-3-(methoxymethyl)-3.4-dihydropyrrolo[1,2-a] pyrazine-1(2H)-one]
 | 0.7 nM | 12.9 nM | 6.3 nM | Cn1nccc1Nc1cc(-c2cc3n(c2)CCN(Cc2cc(F)cc(F)c2CO)C3=O)c(Cl)cn1 [Example 148, 7-(5-chloro-2-((1-methyl-1h-pyrazole-5-yl)amino)pyridine-4-yl)-2-(3,5-difluoro-2-(hydroxymethyl)benzyl)-3,4-dihydropyrrolo[1,2-a] pyrazine-1(2H)-one]
 |  | 17.8 nM | 9.5 nM | Cn1nccc1Nc1cc(-c2cc3n(c2)CCN(Cc2cccc(F)c2CO)C3=O)c(Cl)cn1 [Example 150, 7-(5-chloro-2-((1-methyl-1h-pyrazole-5-yl)amino)pyridine-4-yl)-2-(3-fluoro-2-(hydroxymethyl)benzyl)-3,4-dihydropyrrolo[1,2-a] pyrazine-1(2H)-one]
 | 0.3 nM | 14.3 nM | 7.6 nM | Cc1cnc(Nc2ccnn2C)cc1-c1cc2n(c1)CCN(Cc1cc(F)ccc1CO)C2=O [Example 152, 2-(5-fluoro-2-(hydroxymethyl)benzyl)-7-(5-methyl-2-((1-methyl-1h-pyrazole-5-yl)amino)pyridine-4-yl)-3,4-dihydropyrrolo[1,2-a] pyrazine-1(2H)-one]
 | 0.89 nM | 11.4 nM | 10.7 nM | Cn1nccc1Nc1cc(-c2cc3n(c2)CCN(Cc2cc(F)c(F)cc2CO)C3=O)c(Cl)cn1 [Example 160, 7-(5-chloro-2-((1-methyl-1h-pyrazole-5-yl)amino)pyridine-4-yl)-2-(4,5-difluoro-2-(hydroxymethyl)benzyl)-3,4-dihydropyrrolo[1,2-a] pyrazine-1(2H)-one]
 | 0.62 nM | 15.4 nM | 18.8 nM | COC[C@H]1Cn2cc(-c3nc(Nc4ccnn4C)ncc3C(F)(F)F)cc2C(=O)N1Cc1cc(F)ccc1CO [Example 163, (R)-2-(5-fluoro-2-(hydroxymethyl)benzyl)-3-(methoxymethyl)-7-(2-((1-methyl-1h-pyrazole-5-yl)amino)-5-(trifluoromethyl)pyrimidin-4-yl)-3,4-dihydropyrrolo[1,2-a] pyrazine-1(2H)-one]
 | 0.59 nM | 11 nM | 8.4 nM | COC[C@H]1Cn2cc(-c3cc(Nc4ccnn4C)ncc3Cl)cc2C(=O)N1Cc1cc(F)c(F)c(F)c1CO [Example 168, (R)-7-(5-chloro-2-((1-methyl-1h-pyrazole-5-yl)amino)pyridine-4-yl)-3-(methoxymethyl)-2-(3,4,5-fluoro-2-(hydroxymethyl)benzyl)-3,4-dihydropyrrolo[1,2-a] pyrazine-1(2H)-one]
